PubChem BioAssay (NCI)
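These data come from cells grown in 96-well plates and exposed to compound for 48 hours at five concentrations. At the GI50, growth is halved. TGI: total growth inhibition.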

How the values were obtained:
Test in all cases: NCI tumour cell line growth inhibition, 48 h
SR leukemia = tested on: SR leukemia
RXF 393 renal = tested on: RXF 393 renal
SF-268 CNS = tested on: SF-268 CNS
NCI/ADR-RES ovarian = tested on: NCI/ADR-RES ovarian
SW-620 colon = tested on: SW-620 colon
SK-MEL-2 melanoma = tested on: SK-MEL-2 melanoma
KM12 colon = tested on: KM12 colon
HS 578T breast = tested on: HS 578T breast
COLO 205 colon = tested on: COLO 205 colon
SK-MEL-28 melanoma = tested on: SK-MEL-28 melanoma
EKVX NSCLC = tested on: EKVX NSCLC
CCRF-CEM leukemia = tested on: CCRF-CEM leukemia
A549 NSCLC = tested on: A549 NSCLC
T-47D breast = tested on: T-47D breast
OVCAR-5 ovarian = tested on: OVCAR-5 ovarian
SNB-75 CNS = tested on: SNB-75 CNS
NCI-H226 lung = tested on: NCI-H226 lung
HOP-92 NSCLC = tested on: HOP-92 NSCLC
LOX IMVI melanoma = tested on: LOX IMVI melanoma
786-0 renal = tested on: 786-0 renal
HCT-116 colon = tested on: HCT-116 colon
NCI-H23 lung = tested on: NCI-H23 lung
BT-549 breast = tested on: BT-549 breast
OVCAR-4 ovarian = tested on: OVCAR-4 ovarian
A498 renal = tested on: A498 renal
IGROV1 ovarian = tested on: IGROV1 ovarian
PC-3 prostate = tested on: PC-3 prostate
HT29 colon = tested on: HT29 colon
SN12C renal = tested on: SN12C renal
MCF7 breast = tested on: MCF7 breast
DU-145 prostate = tested on: DU-145 prostate
M14 melanoma = tested on: M14 melanoma
UACC-257 melanoma = tested on: UACC-257 melanoma
TK-10 renal = tested on: TK-10 renal
MALME-3M melanoma = tested on: MALME-3M melanoma
MDA-MB-231 breast = tested on: MDA-MB-231 breast
ACHN renal = tested on: ACHN renal
SF-295 CNS = tested on: SF-295 CNS
UACC-62 melanoma = tested on: UACC-62 melanoma
HCT-15 colon = tested on: HCT-15 colon
HCC-2998 colon = tested on: HCC-2998 colon
CAKI-1 renal = tested on: CAKI-1 renal
U251 CNS = tested on: U251 CNS
SK-MEL-5 melanoma = tested on: SK-MEL-5 melanoma
RPMI-8226 leukemia = tested on: RPMI-8226 leukemia
HOP-62 NSCLC = tested on: HOP-62 NSCLC
OVCAR-8 ovarian = tested on: OVCAR-8 ovarian
SNB-19 CNS = tested on: SNB-19 CNS
UO-31 renal = tested on: UO-31 renal
NCI-H460 lung = tested on: NCI-H460 lung
NCI-H522 lung = tested on: NCI-H522 lung
SF-539 CNS = tested on: SF-539 CNS
MDA-MB-435 = tested on: MDA-MB-435
SK-OV-3 ovarian = tested on: SK-OV-3 ovarian
OVCAR-3 ovarian = tested on: OVCAR-3 ovarian
HL-60(TB) leukemia = tested on: HL-60(TB) leukemia
K-562 leukemia = tested on: K-562 leukemia
MOLT-4 leukemia = tested on: MOLT-4 leukemia
MDA-N = tested on: MDA-N

## CN1CCN(c2ccc3nc(-c4[nH]ncc4Nc4ncnc5[nH]ccc45)[nH]c3c2)CC1
SR leukemia
  GI50: 47.2 nM
RXF 393 renal
  GI50: 177 nM
  TGI: 397 nM
SF-268 CNS
  GI50: 250 nM
  TGI: 803 nM
NCI/ADR-RES ovarian
  GI50: 5240 nM
  TGI: > 100000 nM
SW-620 colon
  GI50: 312 nM
  TGI: 3470 nM
SK-MEL-2 melanoma
  GI50: 390 nM
  TGI: 1910 nM
KM12 colon
  GI50: 517 nM
  TGI: 11600 nM
HS 578T breast
  GI50: 216 nM
  TGI: 2030 nM
COLO 205 colon
  GI50: 147 nM
  TGI: 695 nM
SK-MEL-28 melanoma
  GI50: 309 nM
  TGI: 1750 nM
EKVX NSCLC
  GI50: 340 nM
  TGI: 14200 nM
CCRF-CEM leukemia
  GI50: 171 nM
  TGI: 22300 nM
A549 NSCLC
  GI50: 1740 nM
  TGI: 15000 nM
T-47D breast
  GI50: 320 nM
  TGI: > 52400 nM
OVCAR-5 ovarian
  GI50: 418 nM
  TGI: 9190 nM
SNB-75 CNS
  GI50: 116 nM
  TGI: 574 nM
NCI-H226 lung
  GI50: 212 nM
  TGI: 1010 nM
HOP-92 NSCLC
  GI50: 149 nM
  TGI: 535 nM
LOX IMVI melanoma
  GI50: 148 nM
  TGI: 906 nM
786-0 renal
  GI50: 387 nM
  TGI: 2210 nM
HCT-116 colon
  GI50: 66.5 nM
NCI-H23 lung
  GI50: 517 nM
  TGI: 4060 nM
BT-549 breast
  GI50: 222 nM
  TGI: 816 nM
OVCAR-4 ovarian
  GI50: 343 nM
  TGI: 2130 nM
A498 renal
  GI50: 253 nM
  TGI: 588 nM
IGROV1 ovarian
  GI50: 189 nM
  TGI: 1410 nM
PC-3 prostate
  GI50: 222 nM
  TGI: 3540 nM
HT29 colon
  GI50: 1470 nM
  TGI: 6060 nM
SN12C renal
  GI50: 358 nM
  TGI: 5710 nM
MCF7 breast
  GI50: 293 nM
  TGI: 11200 nM
DU-145 prostate
  GI50: 362 nM
  TGI: 22700 nM
M14 melanoma
  GI50: 377 nM
  TGI: 1840 nM
UACC-257 melanoma
  GI50: 571 nM
  TGI: 20400 nM
TK-10 renal
  GI50: 1110 nM
  TGI: 3320 nM
MALME-3M melanoma
  GI50: 379 nM
  TGI: 2640 nM
MDA-MB-231 breast
  GI50: 184 nM
  TGI: 801 nM
ACHN renal
  GI50: 394 nM
  TGI: 7660 nM
SF-295 CNS
  GI50: 867 nM
  TGI: 3180 nM
UACC-62 melanoma
  GI50: 241 nM
  TGI: 1560 nM
HCT-15 colon
  GI50: 1380 nM
  TGI: 13300 nM
HCC-2998 colon
  GI50: 375 nM
  TGI: 4520 nM
CAKI-1 renal
  GI50: 183 nM
  TGI: 1570 nM
U251 CNS
  GI50: 234 nM
  TGI: 11400 nM
SK-MEL-5 melanoma
  GI50: 367 nM
  TGI: 2150 nM
RPMI-8226 leukemia
  GI50: 5920 nM
  TGI: 19300 nM
HOP-62 NSCLC
  GI50: 381 nM
  TGI: 4060 nM
OVCAR-8 ovarian
  GI50: 381 nM
  TGI: > 31100 nM
SNB-19 CNS
  GI50: 349 nM
  TGI: 3880 nM
UO-31 renal
  GI50: 558 nM
  TGI: 2570 nM
NCI-H460 lung
  GI50: 2680 nM
  TGI: 9780 nM
NCI-H522 lung
  GI50: 196 nM
  TGI: 805 nM
SF-539 CNS
  GI50: 176 nM
  TGI: 496 nM
MDA-MB-435
  GI50: 303 nM
  TGI: 1610 nM
SK-OV-3 ovarian
  GI50: 371 nM
  TGI: 12700 nM
OVCAR-3 ovarian
  GI50: 233 nM
  TGI: 759 nM
HL-60(TB) leukemia
  GI50: 285 nM
  TGI: 686 nM
K-562 leukemia
  GI50: 299 nM
  TGI: > 100000 nM
MOLT-4 leukemia
  GI50: 429 nM
  TGI: 14400 nM

## O=C(CN1CCCCC1)c1ccc2[nH]c(=O)oc2c1
SR leukemia
  TGI: > 100000 nM
RXF 393 renal
  TGI: > 100000 nM
SF-268 CNS
  TGI: > 100000 nM
NCI/ADR-RES ovarian
  TGI: > 100000 nM
SW-620 colon
  TGI: > 100000 nM
SK-MEL-2 melanoma
  TGI: > 100000 nM
KM12 colon
  TGI: > 100000 nM
HS 578T breast
  TGI: > 100000 nM
COLO 205 colon
  TGI: > 100000 nM
SK-MEL-28 melanoma
  TGI: > 100000 nM
EKVX NSCLC
  TGI: > 100000 nM
CCRF-CEM leukemia
  TGI: > 100000 nM
OVCAR-5 ovarian
  TGI: > 100000 nM
SNB-75 CNS
  TGI: 87800 nM
NCI-H226 lung
  TGI: > 100000 nM
LOX IMVI melanoma
  TGI: > 100000 nM
786-0 renal
  TGI: > 100000 nM
HCT-116 colon
  TGI: > 100000 nM
NCI-H23 lung
  TGI: > 100000 nM
BT-549 breast
  TGI: > 100000 nM
A498 renal
  TGI: > 100000 nM
IGROV1 ovarian
  TGI: > 100000 nM
PC-3 prostate
  TGI: > 100000 nM
HT29 colon
  TGI: > 100000 nM
SN12C renal
  TGI: > 100000 nM
MCF7 breast
  TGI: > 100000 nM
DU-145 prostate
  TGI: > 100000 nM
M14 melanoma
  TGI: > 100000 nM
UACC-257 melanoma
  TGI: > 100000 nM
TK-10 renal
  TGI: > 100000 nM
MALME-3M melanoma
  TGI: > 100000 nM
MDA-MB-231 breast
  TGI: > 100000 nM
ACHN renal
  TGI: > 100000 nM
SF-295 CNS
  TGI: > 100000 nM
UACC-62 melanoma
  TGI: > 100000 nM
HCT-15 colon
  TGI: > 100000 nM
CAKI-1 renal
  TGI: > 100000 nM
U251 CNS
  TGI: > 100000 nM
SK-MEL-5 melanoma
  TGI: > 100000 nM
RPMI-8226 leukemia
  TGI: > 100000 nM
HOP-62 NSCLC
  TGI: > 100000 nM
OVCAR-8 ovarian
  TGI: > 100000 nM
SNB-19 CNS
  TGI: > 100000 nM
MDA-N
  TGI: > 100000 nM
NCI-H460 lung
  TGI: > 100000 nM
SF-539 CNS
  TGI: > 100000 nM
MDA-MB-435
  TGI: > 100000 nM
SK-OV-3 ovarian
  TGI: > 100000 nM
OVCAR-3 ovarian
  TGI: > 100000 nM
HL-60(TB) leukemia
  TGI: > 100000 nM
K-562 leukemia
  TGI: > 100000 nM
MOLT-4 leukemia
  TGI: > 100000 nM
